Data from patent US20230134869A1, “CRYSTAL FORM OF FREE ALKALI OF NITROGEN-CONTAINING AROMATIC DERIVATIVES” (Shanghai Hansoh Biomedical Co., Ltd., priority 2020, published 2023).
In brackets after ≈: the same amount, converted by molar mass.

What was measured:
[1] = Solubility experiment in different media (crystal form B of the Example 53 compound); type: physicochemical; details: thermodynamic from solid, 37° C.
Experimental: The solubility of crystal form B of (S)-1′-(6-amino-5-((2-amino-3-chloropyridin-4-yl)thio)-3-fluoropyrazin-2-yl)-1,3-dihydrospiro[indene-2,4′-piperidin]-1-amine in media such as water, Simulated Gastric Fluid (SGF), Fasted State Simulated Intestinal Fluid (FaSSIF) and Fed State Simulated Intestinal Fluid (FeSSIF) was compared, so as to provide a basis for evaluating the druggability.
About 2 mg of crystal form B of (S)-1′-(6-amino-5-((2-amino-3-chloropyridin-4-yl)thio)-3-fluoropyrazin-2-yl)-1,3-dihydrospiro[indene-2,4′-piperidin]-1-amine was suspended in different media for 24 hours, respectively.

[2] = Solid stability experiment under light (amorphous form, crystal forms A and B of the Example 53 compound); type: physicochemical
Experimental: (§1) The content was determined by HPLC using the external standard method. The related substance change was calculated by chromatographic peak area normalization method.

[3] = Hygroscopicity experiment (crystal form B of the Example 53 compound); type: physicochemical
Source text: The hygroscopicity of crystal form B of the compound (S)-1′-(6-amino-5-((2-amino-3-chloropyridin-4-yl)thio)-3-fluoropyrazin-2-yl)-1,3-dihydrospiro[indene-2,4′-piperidin]-1-amine under different relative humidity conditions was investigated, so as to provide a basis for the crystal form screening and storage of the compound.
Crystal form B of (S)-1′-(6-amino-5-((2-amino-3-chloropyridin-4-yl)thio)-3-fluoropyrazin-2-yl)-1,3-dihydrospiro[indene-2,4′-piperidin]-1-amine was placed in saturated water vapor with different relative humidity to achieve dynamic equilibrium between the compound and water vapor, and the percentage of hygroscopic weight gain of the compound after the equilibrium was calculated.

[4] = Polymorphic screening and determination of stable crystal form (Example 53 compound), DSC comparison; type: physicochemical
Source text: The objective is to find stable crystal forms of (S)-1′-(6-amino-5-((2-amino-3-chloropyridin-4-yl)thio)-3-fluoropyrazin-2-yl)-1,3-dihydrospiro[indene-2,4′-piperidin]-1-amine by polymorphic screening.
Organic solvents and water with a certain solubility was chosen to suspend (S)-1′-(6-amino-5-((2-amino-3-chloropyridin-4-yl)thio)-3-fluoropyrazin-2-yl)-1,3-dihydrospiro[indene-2,4′-piperidin]-1-amine in the solvent system, and the mixture was stirred and slurried at room temperature for one week, and then centrifuged. The supernatant was discarded, and the solid was dried under vacuum (−0.1 Mpa) at 40° C. overnight. The XRPD, DSC and TGA of the solid was determined and compared.
Five crystal forms of (S)-1′-(6-amino-5-((2-amino-3-chloropyridin-4-yl)thio)-3-fluoropyrazin-2-yl)-1,3-dihydrospiro[indene-2,4′-piperidin]-1-amine, i.e., crystal forms A, B, C, D and E, were obtained by pulping, changing crystallization solvent and crystallization method.

[5] = Pharmacokinetics assay in rats; type: in vivo; details: SD rats
Experimental: SD rats were used as test animals.
(§2) The solution was subjected to ultrasound to obtain a clear solution. […] The concentration was 0.2 mg/mL.
After an overnight fast, male SD rats (3 rats per group) were administered intravenously with the test compounds at an administration dose of 1 mg/kg and an administration volume of 5 mL/kg.
0.2 mL of blood was taken from jugular vein before administration and at 0 minute, 5 minutes, 15 minutes, 0.5 hour, 1.0 hour, 2.0 hours, 4.0 hours, 8.0 hours and 24.0 hours after administration. The blood samples were stored in EDTA-2K tubes, and centrifuged for 6 minutes at 6000 rpm, at 4° C. to separate the blood plasma. The plasma samples were stored at −80° C.

[6] = Pharmacokinetics assay in mice; type: in vivo; details: Balb/c mice
Experimental: (§3) Balb/c mice were used as test animals.
as §2
After an overnight fast, male Balb/c mice were administered intravenously with the test compounds at an administration dose of 1 mg/kg and an administration volume of 5 mL/kg.
Blood was taken before administration and at 0 minute, 5 minutes, 15 minutes, 0.5 hour, 1.0 hour, 2.0 hours, 4.0 hours, 8.0 hours and 24.0 hours after administration. The blood samples were stored in EDTA-2K tubes, and centrifuged for 6 minutes at 6000 rpm, at 4° C. to separate the blood plasma. The plasma samples were stored at −80° C. The mice were fed 4 hours after administration.

[7] = Tolerance assay in mice (body weight, abnormal responses); type: in vivo, Balb/c mice; details: oral 10 mg/kg QD
Experimental: as §3
5 g of hydroxyethyl cellulose (HEC, CMC-Na, viscosity: 800-1200 Cps) was dissolved in 1000 mL of purified water, and 10 g of Tween 80 was added. The solution was mixed well to form a clear solution.
The solution was subjected to ultrasound for 10 minutes to obtain a colorless and clear solution with a concentration of 1 mg/mL.
After an overnight fast, Balb/c mice (3 male and 3 female) were administrated orally with the test compound at an administration dose of 10 mg/kg and an administration volume of 10 mL/kg.
The mice were weighed daily before and after administration, and abnormal responses were observed. The mice were fed 4 hours after administration.

[8] = Pharmacokinetics study in rats of crystal form A of the Example 35 compound, single oral administration; type: in vivo; details: SD rats, intragastric, 10 mg/kg
[9] = Hygroscopicity experiment (crystal form A of the Example 35 compound); type: physicochemical
[10] = Solid stability experiment: high temperature, high humidity (crystal form A of the Example 35 compound); type: physicochemical; details: 60° C.; room temperature/92.5% RH; 50° C. and 75% RH; 5, 10, 20 and 30 days
Experimental: as §1

[11] = Crystal transformation investigation: pressure (tabletting) and grinding; type: physicochemical; details: compressed into tablets; ground 15 minutes
Source text: The tablets were mashed to powder and characterized by XRPD.

[12] = Solubility experiment in different media (crystal form A of the Example 35 compound); type: physicochemical; details: 37° C., 2 hours, buffers pH 1 to 8, water, FaSGF, FaSSIF, FeSSIF
[13] = Determination of stable crystal form by comparing DSC spectrums (Example 35 compound); type: physicochemical
Source text: The objective is to find stable crystal forms of the compound (S)-8-(6-amino-5-((2-amino-3-chloropyridin-4-yl)thio)pyrazin-2-yl)-2-cyclopropyl-8-azaspiro[4.5]dec-2-en-1-amine by polymorphic screening.
Three crystal forms of (S)-8-(6-amino-5-((2-amino-3-chloropyridin-4-yl)thio)pyrazin-2-yl)-2-cyclopropyl-8-azaspiro[4.5]dec-2-en-1-amine, i.e., crystal forms A, B and C, were obtained by pulping, changing crystallization solvent and crystallization method.

[14] = Light 5000 ± 500 lux (sealed), Day 0
[15] = Light 5000 ± 500 lux (sealed), Day 5
[16] = Light 5000 ± 500 lux (sealed), Day 10

Nc1nc(N2CCC3(CC2)Cc2ccccc2[C@H]3N)c(F)nc1Sc1ccnc(N)c1Cl [(S)-1′-(6-amino-5-((2-amino-3-chloropyridin-4-yl)thio)-3-fluoropyrazin-2-yl)-1,3-dihydrospiro[indene-2,4′-piperidin]-1-amine]
solubility thermodynamic at 24 h ([1]; simulated gastric fluid, SGF): 2050 µg/mL (≈ 4340 µM) | solubility thermodynamic at 24 h ([1]; Fa (Fasted State Simulated Intestinal Fluid, FaSSIF)): 170 µg/mL (≈ 360 µM) | solubility thermodynamic at 24 h ([1]; Fe (Fed State Simulated Intestinal Fluid, FeSSIF)): 64 µg/mL (≈ 136 µM) | solubility thermodynamic at 24 h ([1]; water): 1 µg/mL (≈ 2.12 µM)

Nc1nc(N2CCC3(CC2)Cc2ccccc2[C@H]3N)c(F)nc1Sc1ccnc(N)c1Cl [crystal form B of (S)-1′-(6-amino-5-((2-amino-3-chloropyridi] [(S)-1′-(6-amino-5-((2-amino-3-chloropyridin-4-yl)thio)-3-fluoropyrazin-2-yl)-1,3-dihydrospiro[indene-2,4′-piperidin]-1-amine]
Content (HPLC) Day 0 [2, 14]: 98.34% | Total impurities [2, 14]: 1.66% | Content (HPLC) Day 5 [2, 15]: 97.28% | Total impurities [2, 15]: 2.72% | Total impurities gain ([2]; Light 5000 ± 500 lux (sealed), Day 5 vs Day 0): 1.06% | Content (HPLC) Day 10 [2, 16]: 96.46% | Total impurities [2, 16]: 3.54% | Total impurities gain ([2]; Light 5000 ± 500 lux (sealed), Day 10 vs Day 0): 1.88% | Crystal form (XRPD) after one cycle of humidification and dehumidification ([3]; 0 to 95% relative humidity): the crystal form didn't transform | Hygroscopic weight gain ([3]; RH 80%): about 1.639% | Hygroscopicity ([3]; RH 80%): slight hygroscopicity | Thermodynamic stability by comparing DSC spectrums of crystal forms A, B, C, D and E [4]: best thermodynamic stability among the five crystal forms

Nc1nc(N2CCC3(CC2)Cc2ccccc2[C@H]3N)c(F)nc1Sc1ccnc(N)c1Cl [amorphous form of (S)-1′-(6-amino-5-((2-amino-3-chloropyridi] [(S)-1′-(6-amino-5-((2-amino-3-chloropyridin-4-yl)thio)-3-fluoropyrazin-2-yl)-1,3-dihydrospiro[indene-2,4′-piperidin]-1-amine]
10-day total impurities gain ([2]; light 5000 lx±500 lx, 10 days): 19.34%

Nc1nc(N2CCC3(CC2)Cc2ccccc2[C@H]3N)c(F)nc1Sc1ccnc(N)c1Cl [Example 53, (S)-1′-(6-amino-5-((2-amino-3-chloropyridin-4-yl)thio)-3-fluoropyrazin-2-yl)-1,3-dihydrospiro[indene-2,4′-piperidin]-1-amine]
F [5]: 118% | F [6]: 71% | Body weight (Mean), Day 1 ([7]; female Balb/c mice): 22.07 g | Body weight (Mean), Day 16 ([7]; female Balb/c mice): 25.09 g | Body weight changes ΔW/W1 (Mean), Day 16 ([7]; female Balb/c mice): 13.80% | Body weight (Mean), Day 1 ([7]; male Balb/c mice): 23.01 g | Body weight (Mean), Day 16 ([7]; male Balb/c mice): 28.30 g | Body weight changes ΔW/W1 (Mean), Day 16 ([7]; male Balb/c mice): 23.25%

Nc1nc(N2CCC3(CC=C(C4CC4)[C@H]3N)CC2)cnc1Sc1ccnc(N)c1Cl [(S)-8-(6-amino-5-((2-amino-3-chloropyridin-4-yl)thio)pyrazin-2-yl)-2-cyclopropyl-8-azaspiro[4.5]dec-2-en-1-amine]
Metabolic property (pharmacokinetics experiment in rats) [8]: good metabolic property | Crystal form (XRPD) after one cycle of humidification and dehumidification ([9]; 0 to 95% relative humidity): the crystal form didn't transform | Hygroscopic weight gain ([9]; RH 80%): about 0.544% | Hygroscopicity ([9]; RH 80%): slight hygroscopicity | Impurity increase [10]: less than 0.15% | Crystal transformation after tabletting and grinding (XRPD) [11]: didn't undergo crystal transformation | Solubility compared in different media [12]: better solubility under acidic conditions | Thermodynamic stability by comparing DSC spectrums of crystal forms A, B and C [13]: better thermodynamic stability
